Experimental data published in US12723063B2, “GIPR-agonist compounds” (Eli Lilly and Company, priority 2019, dated 2026).
*1 amine or outer side, *2 acyl side, *3 side chain or, on linkers, in order; H or OH if unused. Where a SMILES comes first, the peptide text is derived from it. Side-chain parts run from the residue outwards. [ ]: non-standard residue; d: D form. The star is where a group is joined. C20 diacid = O=C(O)CCCCCCCCCCCCCCCCCCC(=O)*; C18 diacid = O=C(O)CCCCCCCCCCCCCCCCC(=O)*; αMePhe(2-F) = C[C@](N)(Cc1ccccc1F)C(=O)O; γGlu = O=C(O)[C@H](CCC(=O)[*:2])N[*:1]; 4Pal = N[C@@H](Cc1ccncc1)C(=O)O; αMeL = CC(C)C[C@](C)(N)C(=O)O; Orn = NCCC[C@H](N)C(=O)O; AEEA = NCCOCCOCC(=O)O; Aib = CC(C)(N)C(=O)O

Experiments:
[1] = target: T1, human glucagon receptor (GcgR) (Homo sapiens, UniProt P47871); assay: cAMP functional assay (HTRF) in HEK293 cells in presence of 0.1% casein; assay type: cell-based; details: HEK293 cells expressing human GcgR, geometric mean, read-out: hGcgR cAMP Rel EC50 nM (SEM, n)
T1 construct: expressed in transfected cells; host or cells: HEK293

[2] = target: T2, human glucose-dependent insulinotropic peptide receptor (GIPR) (Homo sapiens, UniProt P48546); assay: as above; assay type: cell-based; details: HEK293 cells expressing human GIPR, geometric mean, read-out: hGIPR cAMP Rel EC50 nM (SEM, n)
T2 construct: expressed in transfected cells; host or cells: HEK293
T2 sequence (P48546 22-466): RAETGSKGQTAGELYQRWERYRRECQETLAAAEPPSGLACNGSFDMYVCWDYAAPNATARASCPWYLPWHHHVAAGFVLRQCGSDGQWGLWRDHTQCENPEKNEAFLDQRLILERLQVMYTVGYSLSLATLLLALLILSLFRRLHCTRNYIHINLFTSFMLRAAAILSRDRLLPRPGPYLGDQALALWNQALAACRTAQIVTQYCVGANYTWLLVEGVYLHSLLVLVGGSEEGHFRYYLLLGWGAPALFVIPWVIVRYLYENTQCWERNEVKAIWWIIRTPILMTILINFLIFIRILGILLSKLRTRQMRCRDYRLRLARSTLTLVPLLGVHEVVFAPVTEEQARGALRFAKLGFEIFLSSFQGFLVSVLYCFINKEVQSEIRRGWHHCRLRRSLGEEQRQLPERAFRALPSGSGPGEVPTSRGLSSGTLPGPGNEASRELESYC

T1 sequence (P47871 26-477): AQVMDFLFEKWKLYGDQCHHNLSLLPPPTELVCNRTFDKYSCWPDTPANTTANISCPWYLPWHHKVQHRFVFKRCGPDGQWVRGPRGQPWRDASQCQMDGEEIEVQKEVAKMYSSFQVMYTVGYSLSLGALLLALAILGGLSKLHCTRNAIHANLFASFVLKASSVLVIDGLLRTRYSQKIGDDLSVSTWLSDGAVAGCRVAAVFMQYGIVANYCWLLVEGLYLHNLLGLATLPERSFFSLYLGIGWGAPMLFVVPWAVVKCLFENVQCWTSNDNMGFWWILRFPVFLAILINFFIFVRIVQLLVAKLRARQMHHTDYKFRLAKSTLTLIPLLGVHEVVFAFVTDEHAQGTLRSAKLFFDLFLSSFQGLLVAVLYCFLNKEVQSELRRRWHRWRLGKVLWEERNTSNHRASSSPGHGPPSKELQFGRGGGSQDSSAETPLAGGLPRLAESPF

## CC[C@H](C)[C@H](NC(=O)[C@H](CO)NC(=O)[C@H](Cc1ccc(O)cc1)NC(=O)[C@H](CC(=O)O)NC(=O)[C@H](CO)NC(=O)[C@@H](NC(=O)[C@](C)(Cc1ccccc1F)NC(=O)[C@@H](NC(=O)CNC(=O)[C@H](CCC(=O)O)NC(=O)C(C)(C)NC(=O)[C@@H](N)Cc1ccc(O)cc1)[C@@H](C)O)[C@@H](C)CC)C(=O)N[C@@H](C)C(=O)N[C@@H](CC(C)C)C(=O)N[C@@H](CC(=O)O)C(=O)N[C@@H](CCCCN)C(=O)N[C@H](C(=O)N[C@@H](Cc1c[nH]cn1)C(=O)N[C@@H](CCC(N)=O)C(=O)NC(C)(C)C(=O)N[C@@H](CCC(=O)O)C(=O)N[C@@H](Cc1ccccc1)C(=O)N[C@H](C(=O)N[C@@H](CC(N)=O)C(=O)N[C@@H](Cc1ccc(O)cc1)C(=O)N[C@@H](CCCCNC(=O)COCCOCCNC(=O)COCCOCCNC(=O)CC[C@H](NC(=O)CCCCCCCCCCCCCCCCCCC(=O)O)C(=O)O)C(=O)N[C@@H](CC(C)C)C(=O)N[C@@H](C)C(=O)NCC(=O)NCC(=O)N1CCC[C@H]1C(=O)N[C@@H](CO)C(=O)N[C@@H](CO)C(=O)NCC(=O)N[C@@H](C)C(=O)N1CCC[C@H]1C(=O)N1CCC[C@H]1C(=O)N1CCC[C@H]1C(=O)N[C@@H](CO)C(N)=O)C(C)C)[C@@H](C)CC [Example 98] (H-Y[Aib]EGT[αMePhe(2-F)]ISDYSIALDKIHQ[Aib]EFVNYK([AEEA-AEEA-γGlu-C20 diacid])LAGGPSSGAPPPS-NH2)
[1]
  EC50: > 5000 nM
[2]
  EC50: 0.00718 nM

## CC[C@H](C)[C@H](NC(=O)[C@H](CO)NC(=O)[C@H](Cc1ccc(O)cc1)NC(=O)[C@H](CC(=O)O)NC(=O)[C@H](CO)NC(=O)[C@@H](NC(=O)[C@](C)(Cc1ccccc1F)NC(=O)[C@@H](NC(=O)CNC(=O)[C@H](CCC(=O)O)NC(=O)C(C)(C)NC(=O)[C@@H](N)Cc1ccc(O)cc1)[C@@H](C)O)[C@@H](C)CC)C(=O)N[C@@H](C)C(=O)N[C@@H](CC(C)C)C(=O)N[C@@H](CC(=O)O)C(=O)N[C@@H](CCCCN)C(=O)N[C@H](C(=O)N[C@@H](Cc1c[nH]cn1)C(=O)N[C@@H](CCC(N)=O)C(=O)NC(C)(C)C(=O)N[C@@H](CC(=O)O)C(=O)N[C@@H](Cc1ccccc1)C(=O)N[C@H](C(=O)N[C@@H](CCC(=O)O)C(=O)N[C@@H](Cc1ccc(O)cc1)C(=O)N[C@@H](CCCCNC(=O)COCCOCCNC(=O)COCCOCCNC(=O)CC[C@H](NC(=O)CCCCCCCCCCCCCCCCCCC(=O)O)C(=O)O)C(=O)N[C@@H](CC(C)C)C(=O)N[C@@H](CCC(=O)O)C(=O)NCC(=O)NCC(=O)N1CCC[C@H]1C(=O)N[C@@H](CO)C(=O)N[C@@H](CO)C(=O)NCC(=O)N[C@@H](C)C(=O)N1CCC[C@H]1C(=O)N1CCC[C@H]1C(=O)N1CCC[C@H]1C(=O)N[C@@H](CO)C(N)=O)C(C)C)[C@@H](C)CC [Example 99] (H-Y[Aib]EGT[αMePhe(2-F)]ISDYSIALDKIHQ[Aib]DFVEYK([AEEA-AEEA-γGlu-C20 diacid])LEGGPSSGAPPPS-NH2)
[1]
  EC50: > 5000 nM
[2]
  EC50: 0.00454 nM

## CC[C@H](C)[C@H](NC(=O)[C@H](CCCCN)NC(=O)[C@H](CC(=O)O)NC(=O)[C@H](CC(C)C)NC(=O)[C@](C)(CC(C)C)NC(=O)[C@@H](NC(=O)[C@H](CO)NC(=O)[C@H](Cc1ccc(O)cc1)NC(=O)[C@H](CC(=O)O)NC(=O)[C@H](CO)NC(=O)[C@@H](NC(=O)[C@H](Cc1ccccc1)NC(=O)[C@@H](NC(=O)CNC(=O)[C@H](CCC(=O)O)NC(=O)C(C)(C)NC(=O)[C@@H](N)Cc1ccc(O)cc1)[C@@H](C)O)[C@@H](C)CC)[C@@H](C)CC)C(=O)N[C@@H](Cc1c[nH]cn1)C(=O)N[C@@H](CCC(N)=O)C(=O)NC(C)(C)C(=O)N[C@@H](CCC(=O)O)C(=O)N[C@@H](Cc1ccccc1)C(=O)N[C@H](C(=O)N[C@@H](CCC(=O)O)C(=O)N[C@@H](Cc1ccncc1)C(=O)N[C@@H](CCCCNC(=O)COCCOCCNC(=O)COCCOCCNC(=O)CC[C@H](NC(=O)CCCCCCCCCCCCCCCCCCC(=O)O)C(=O)O)C(=O)N[C@@H](CC(C)C)C(=O)N[C@@H](CCC(=O)O)C(=O)NCC(=O)NCC(=O)N1CCC[C@H]1C(=O)N[C@@H](CO)C(=O)N[C@@H](CO)C(=O)NCC(=O)N[C@@H](C)C(=O)N1CCC[C@H]1C(=O)N1CCC[C@H]1C(=O)N1CCC[C@H]1C(=O)N[C@@H](CO)C(N)=O)C(C)C [Example 100] (H-Y[Aib]EGTFISDYSI[αMeL]LDKIHQ[Aib]EFVE[4Pal]K([AEEA-AEEA-γGlu-C20 diacid])LEGGPSSGAPPPS-NH2)
[1]
  EC50: > 5000 nM
[2]
  EC50: 0.0224 nM

## CC[C@H](C)[C@H](NC(=O)[C@H](CCCN)NC(=O)[C@H](CC(=O)O)NC(=O)[C@H](CC(C)C)NC(=O)[C@](C)(CC(C)C)NC(=O)[C@@H](NC(=O)[C@H](CO)NC(=O)[C@H](Cc1ccc(O)cc1)NC(=O)[C@H](CC(=O)O)NC(=O)[C@H](CO)NC(=O)[C@@H](NC(=O)[C@H](Cc1ccccc1)NC(=O)[C@@H](NC(=O)CNC(=O)[C@H](CCC(=O)O)NC(=O)C(C)(C)NC(=O)[C@@H](N)Cc1ccc(O)cc1)[C@@H](C)O)[C@@H](C)CC)[C@@H](C)CC)C(=O)N[C@@H](Cc1c[nH]cn1)C(=O)N[C@@H](CCC(N)=O)C(=O)NC(C)(C)C(=O)N[C@@H](CC(=O)O)C(=O)N[C@@H](Cc1ccccc1)C(=O)N[C@H](C(=O)N[C@H](CCC(=O)O)C(=O)N[C@@H](Cc1ccc(O)cc1)C(=O)N[C@@H](CCCCNC(=O)COCCOCCNC(=O)COCCOCCNC(=O)CC[C@H](NC(=O)CCCCCCCCCCCCCCCCCCC(=O)O)C(=O)O)C(=O)N[C@@H](CC(C)C)C(=O)N[C@@H](CCC(=O)O)C(=O)NCC(=O)NCC(=O)N1CCC[C@H]1C(=O)N[C@@H](CO)C(=O)N[C@@H](CO)C(=O)NCC(=O)N[C@@H](C)C(=O)N1CCC[C@H]1C(=O)N1CCC[C@H]1C(=O)N1CCC[C@H]1C(=O)N[C@@H](CO)C(N)=O)C(C)C [Example 101]
[1]
  EC50: > 5000 nM
[2]
  EC50: 0.0396 nM

## CC[C@H](C)[C@H](NC(=O)[C@H](CCCN)NC(=O)[C@H](CC(=O)O)NC(=O)[C@H](CC(C)C)NC(=O)[C@](C)(CC(C)C)NC(=O)[C@@H](NC(=O)[C@H](CO)NC(=O)[C@H](Cc1ccc(O)cc1)NC(=O)[C@H](CC(=O)O)NC(=O)[C@H](CO)NC(=O)[C@@H](NC(=O)[C@H](Cc1ccccc1)NC(=O)[C@@H](NC(=O)CNC(=O)[C@H](CCC(=O)O)NC(=O)C(C)(C)NC(=O)[C@@H](N)Cc1ccc(O)cc1)[C@@H](C)O)[C@@H](C)CC)[C@@H](C)CC)C(=O)N[C@@H](Cc1c[nH]cn1)C(=O)N[C@@H](CCC(N)=O)C(=O)NC(C)(C)C(=O)N[C@@H](CCC(=O)O)C(=O)N[C@@H](Cc1ccccc1)C(=O)N[C@H](C(=O)N[C@H](CCC(=O)O)C(=O)N[C@@H](Cc1ccc(O)cc1)C(=O)N[C@@H](CCCCNC(=O)COCCOCCNC(=O)COCCOCCNC(=O)CC[C@H](NC(=O)CCCCCCCCCCCCCCCCCCC(=O)O)C(=O)O)C(=O)N[C@@H](CC(C)C)C(=O)N[C@@H](CCC(=O)O)C(=O)NCC(=O)NCC(=O)N1CCC[C@H]1C(=O)N[C@@H](CO)C(=O)N[C@@H](CO)C(=O)NCC(=O)N[C@@H](C)C(=O)N1CCC[C@H]1C(=O)N1CCC[C@H]1C(=O)N1CCC[C@H]1C(=O)N[C@@H](CO)C(N)=O)C(C)C [Example 102] (H-Y[Aib]EGTFISDYSI[αMeL]LD[Orn]IHQ[Aib]EFV[dE]YK([AEEA-AEEA-γGlu-C20 diacid])LEGGPSSGAPPPS-NH2)
[1]
  EC50: > 5000 nM
[2]
  EC50: 0.0166 nM

## CC[C@H](C)[C@H](NC(=O)[C@H](CCCN)NC(=O)[C@H](CC(=O)O)NC(=O)[C@H](CC(C)C)NC(=O)[C@](C)(CC(C)C)NC(=O)[C@@H](NC(=O)[C@H](CO)NC(=O)[C@H](Cc1ccc(O)cc1)NC(=O)[C@H](CC(=O)O)NC(=O)[C@H](CO)NC(=O)[C@@H](NC(=O)[C@H](Cc1ccccc1)NC(=O)[C@@H](NC(=O)CNC(=O)[C@H](CCC(=O)O)NC(=O)C(C)(C)NC(=O)[C@@H](N)Cc1ccc(O)cc1)[C@@H](C)O)[C@@H](C)CC)[C@@H](C)CC)C(=O)N[C@@H](Cc1c[nH]cn1)C(=O)N[C@@H](CCC(N)=O)C(=O)NC(C)(C)C(=O)N[C@@H](CC(=O)O)C(=O)N[C@@H](Cc1ccccc1)C(=O)N[C@H](C(=O)N[C@@H](CCC(=O)O)C(=O)N[C@@H](Cc1ccc(O)cc1)C(=O)N[C@@H](CCCCNC(=O)COCCOCCNC(=O)COCCOCCNC(=O)CC[C@H](NC(=O)CCCCCCCCCCCCCCCCC(=O)O)C(=O)O)C(=O)N[C@@H](CC(C)C)C(=O)N[C@@H](CCC(=O)O)C(=O)NCC(=O)NCC(=O)N1CCC[C@H]1C(=O)N[C@@H](CO)C(=O)N[C@@H](CO)C(=O)NCC(=O)N[C@@H](C)C(=O)N1CCC[C@H]1C(=O)N1CCC[C@H]1C(=O)N1CCC[C@H]1C(=O)N[C@@H](CO)C(N)=O)C(C)C [Example 103] (H-Y[Aib]EGTFISDYSI[αMeL]LD[Orn]IHQ[Aib]DFVEYK([AEEA-AEEA-γGlu-C18 diacid])LEGGPSSGAPPPS-NH2)
[1]
  EC50: > 5000 nM
[2]
  EC50: 0.0129 nM
